The values that follow come from ChEMBL document CHEMBL1131772, “Synthesis of 8-Oxa analogues of norcocaine endowed with interesting cocaine-like activity” (Bioorg Med Chem Lett, 1999).

Test [1] deals with T1, Sodium-dependent dopamine transporter (Rattus norvegicus, UniProt P23977). Briefly: Inhibition of high affinity uptake of [3H]dopamine into striatal nerve endings (synaptosomes). It is filed as subcellular, Brain.
Test [2] deals with T1, Sodium-dependent dopamine transporter. The experiment in a line: Binding affinity towards dopamine transporter using [3H]- mazindol as radioligand in rat striatal membranes. The format is cell membranes, Striatum, Membrane.

T1 sequence (P23977 whole entry): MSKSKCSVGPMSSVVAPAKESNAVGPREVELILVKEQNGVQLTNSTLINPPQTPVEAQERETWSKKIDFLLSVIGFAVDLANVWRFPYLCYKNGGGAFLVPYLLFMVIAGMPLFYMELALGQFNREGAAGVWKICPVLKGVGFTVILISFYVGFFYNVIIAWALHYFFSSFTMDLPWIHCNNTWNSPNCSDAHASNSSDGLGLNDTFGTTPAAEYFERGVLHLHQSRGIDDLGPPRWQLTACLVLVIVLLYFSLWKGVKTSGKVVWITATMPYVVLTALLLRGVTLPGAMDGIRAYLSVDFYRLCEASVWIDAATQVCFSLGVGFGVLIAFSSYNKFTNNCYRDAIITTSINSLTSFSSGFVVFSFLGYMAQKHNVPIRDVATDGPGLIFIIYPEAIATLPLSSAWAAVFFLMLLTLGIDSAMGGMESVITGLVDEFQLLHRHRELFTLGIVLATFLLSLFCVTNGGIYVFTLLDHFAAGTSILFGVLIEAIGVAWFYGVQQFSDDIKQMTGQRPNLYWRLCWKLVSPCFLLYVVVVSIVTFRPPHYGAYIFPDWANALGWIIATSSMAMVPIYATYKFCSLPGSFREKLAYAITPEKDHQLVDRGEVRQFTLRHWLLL

Take `COC(=O)[C@@H]1C2CCC(C[C@H]1OC(=O)c1ccccc1)O2` (some centres not stated): the results for the inhibitory constant (Ki) in test [1] and in test [2] were 23 µM and 34 µM, respectively.

Take `COC(=O)[C@@H]1C2CCC(C[C@@H]1OC(=O)c1ccccc1)O2` (stereo in doubt; (+)): the Ki (commonly a measure of affinity in units of concentration, obtained from inhibition or displacement) in test [1] was 9.4 µM; in test [2], 3.1 µM.

As to `COC(=O)[C@H]1C2CCC(C[C@@H]1OC(=O)c1ccccc1)O2` (stereo in doubt; (+)), the inhibition constant (Ki) was found to be 47.7 µM in test [1] and 29.4 µM in test [2].

Consider `COC(=O)[C@@H]1C2CCC(C[C@@H]1OC(=O)c1ccccc1)O2` (stereo in doubt; (-)), for which the inhibitory constant (Ki) worked out at 8.5 µM in test [1] and 4.2 µM in test [2].

Regarding `COC(=O)[C@H]1C2CCC(C[C@H]1OC(=O)c1ccccc1)O2` (some centres not stated), the Ki in test [1] is 35 µM; in test [2], 38 µM.

For the molecule `COC(=O)[C@H]1C2CCC(C[C@@H]1OC(=O)c1ccccc1)O2` (stereo in doubt; (-)), the Ki in test [1] is 6 µM; in test [2], 4.7 µM.
